pIC50: −log10 of the molar value. Read-outs that look alike come from different tables or passages of the source.
Legend:
[1] = Stability test in liver microsomes, human; format: in vitro ADME; conditions: for half-life at 1 μM: 0.5 mg/mL
Description: (§1) A stability of the compound of the present application in liver microsomes of human, rat and mouse was measured.
(§2) 3.1 A buffer and a liver microsome were prepared into an incubation solution according to the following table:
(§3) 3.2 The following two experiments were carried out respectively: a) incubation system added with coenzyme factor NADPH: 25 μL of NADPH (10 mM) was added into an incubation solution (mainly comprising a liver microsome and a phosphate buffer), so that final concentrations of the liver microsome and the NADPH were 0.5 mg/mL and […] respectively; and b) incubation system without coenzyme factor NADPH: 25 μL of phosphate buffer (100 mM) was added into the incubation solution, so that the final concentration of the liver microsome was 0.5 mg/mL. The incubation systems above were preheated at 37° C. for 10 minutes respectively.
(§4) 3.3 2.5 μL of positive control compound or a tested compound solution (100 μM) was added into the incubation systems described in “step 3.2” above respectively for reaction, and the positive control compound was verapamil (purchased from Sigma), so that a final concentration of the tested compound of the present application or the positive control compound was 1 μM. The incubation solution added with the compound was incubated in water at 37° C. in batches.
(§5) 3.4 30 μL of aliquot was taken from a reaction solution after 0.5 minute, 5 minutes, 15 minutes, 30 minutes and 45 minutes respectively, and the reaction was terminated by adding 5 times volume of cold acetonitrile containing 200 nM caffeine and 100 nM tolbutamide. The aliquot was centrifuged at a gravity acceleration of 3,220 g for 40 minutes, and 100 μL of supernatant was mixed with 100 μL of ultrapure water, and then used for LC-MS/MS analysis.
(§6) A peak area was determined by an extracted ion chromatogram. A slope value k was determined by linear regression of a remaining percentage of a parent drug relative to […] an incubation time curve.
(§7) In-vitro half-life periods (t1/2) were respectively calculated and determined according to the slope value, and an average value of the in-vitro half-life periods was converted into an in-vitro intrinsic clearance rate (CLint, represented by μL/min/mg protein).

[2] = Stability test in liver microsomes, rat; format: in vitro ADME; conditions: for half-life at 1 μM: 0.5 mg/mL
Description: as §1, §2, §3, §4, §5, §6, §7

[3] = test system: Ba/F3 EVT6-NTRK3-G623R; experiment: In-vitro cell viability (CTG), NTRK mutant cells; format: cell-based; conditions: for pIC50: Mus musculus, read-out: Ba/F3 EVT6-NTRK3-G623R IC50
Description: (§8) Hefei Precedo Biomedical Technology Co., Ltd. was commissioned to complete the testing example, and NTRK mutant cells used were constructed by this company.
(§9) Inhibitory effects of the compound of the present application on growth of three NTRK mutant cells (Ba/F3 LMNA-NTRK1-G667C, Ba/F3 EVT6-NTRK3-G623R and Ba/F3 LMNA-NTRK1-G595R) were measured.
(§10) Cells in logarithmic growth phase were collected and counted by a blood platelet counter, a cell concentration was adjusted to 3 to 6×10^4 cell/mL, 90 μL of cell suspension was added into a 96-well plate, and cells in the 96-well plate were cultured at 37° C. under 5% CO2 and 95% humidity overnight.
(§11) The to-be-tested compound was prepared into a 10 times drug solution in a medium containing 1% DMSO, with […] and the drug solution was diluted by 3 times in sequence to obtain drug solutions with 9 concentrations in total. […] 10 μL of prepared drug solution was added into each well of the 96-well plate in which the cells were inoculated. Then, 90 μL of medium containing 1% DMSO was added to obtain a drug solution with a highest concentration of 1 μM, and the drug solution was diluted by 3 times in sequence to obtain drug solutions with 9 concentrations in total. A final concentration of DMSO in each well was 0.1%, and three multiple wells were provided for the drug of each concentration. The cells in the 96-well plate in which the drug has been added were cultured at 37° C. under 5% CO2 and 95% humidity for 72 hours, and then subjected to CTG analysis.
(§12) An equal volume of CTG solution was added into each well, the 96-well plate was placed at room temperature for 20 minutes to stabilize a luminescence signal, and a luminescence value was read.
(§13) Data was analyzed by GraphPad Prism 7.0 software, and fitted by nonlinear S-curve regression to obtain a dose-effect curve, from which an IC50 value was calculated. Cell survival rate (%)=(Lum to-be-tested drug−Lum medium control)/(Lum cell control−Lum medium control)×100%.

[4] = test system: Ba/F3 LMNA-NTRK1-G667C; experiment: In-vitro cell viability (CTG), NTRK mutant cells; format: cell-based; conditions: Mus musculus, read-out: Ba/F3 LMNA-NTRK1-G667C IC50
Description: as §8, §9, §10, §11, §12, §13

[5] = test system: Ba/F3 LMNA-NTRK1-G595R; experiment: In-vitro cell viability (CTG), NTRK mutant cells; format: cell-based; conditions: Mus musculus, read-out: Ba/F3 LMNA-NTRK1-G595R IC50
Description: as §8, §9, §10, §11, §12, §13

SMILES: O=C1N[C@H]2C[C@H](C2)Oc2ncc(F)cc2[C@H]2CCCN2c2nc3c1cnn3cc2F [Example 2, ((1^3E,1^4E,2^2R,5^1S,5^3S)-1^6,3^5-difluoro-4-oxa-6-aza-1(5,3)-pyrazolo[1,5-a]pyrimidine-3(3,2)-pyridine-2(1,2)-pyrrolidine-5(1,3)-cyclobutancycloheptan-7-one]
- microsomal CLint at 1 μM [1]: 86 µL/min/mg
- half-life at 1 μM [1]: 16.1 min
- % Remaining(45 min) [1]: 14.38%
- microsomal CLint at 1 μM [2]: 214 µL/min/mg
- half-life at 1 μM [2]: 6.5 min
- % Remaining(45 min) [2]: 2.37%
- pIC50 ([3]; BaF3, 72 h): 7.85
- pIC50 ([4]; BaF3, 72 h): 8.52
- pIC50 ([5]; BaF3, 72 h): 8.64

SMILES: C[C@H]1Nc2nc3c(cnn3cc2F)C(=O)N[C@H]2C[C@H](C2)Oc2ncc(F)cc21 [Example 3, (3^1S,3^3S,6^3E,6^4E,8R)-1^5,6^6-difluoro-8-methyl-2-oxo-4,7-diaza-6(3,5)-pyrazolo[1,5-a]pyrimidine-1(2,3)-pyridine-3(1,3)-cyclobutylcyclooctane-5-one]
- microsomal CLint at 1 μM [1]: 11.1 µL/min/mg
- half-life at 1 μM [1]: 128 min
- % Remaining(45 min) [1]: 69.89%
- microsomal CLint at 1 μM [2]: 22.8 µL/min/mg
- half-life at 1 μM [2]: 60.8 min
- % Remaining(45 min) [2]: 51.22%
- inhibitory activity higher than that of the positive control compound 2 ([3]; Ba/F3 EVT6-NTRK3-G623R, data of Table 2): 4 times
- pIC50 ([3]; BaF3, 72 hours, CTG): 7.60
- pIC50 ([4]; BaF3, 72 hours, CTG): 8.49
- pIC50 ([5]; BaF3, 72 hours, CTG): 8.35

SMILES: C[C@H]1Nc2ccn3ncc(c3n2)C(=O)N[C@H]2C[C@H](C2)Oc2ncc(F)cc21 [Positive control 2, reference compound]
- microsomal CLint at 1 μM [1]: 16.4 µL/min/mg
- half-life at 1 μM [1]: 84.8 min
- % Remaining(45 min) [1]: 67.39%
- microsomal CLint at 1 μM [2]: 30 µL/min/mg
- half-life at 1 μM [2]: 46.3 min
- % Remaining(45 min) [2]: 40.95%
- pIC50 ([3]; BaF3, 72 hours, CTG): 6.97
- pIC50 ([4]; BaF3, 72 hours, CTG): 8.19
- pIC50 ([5]; BaF3, 72 hours, CTG): 7.89

SMILES: O=C1N[C@H]2C[C@H](C2)Oc2ncc(F)cc2[C@H]2CCCN2c2ccn3ncc1c3n2 (stereo in doubt) [Positive control 1, reference compound]
- microsomal CLint at 1 μM [1]: 92.3 µL/min/mg
- half-life at 1 μM [1]: 15 min
- % Remaining(45 min) [1]: 12.43%
- microsomal CLint at 1 μM [2]: 123 µL/min/mg
- half-life at 1 μM [2]: 11.3 min
- % Remaining(45 min) [2]: 9.03%
- pIC50 ([3]; BaF3, 72 hours, CTG): 7.74
- pIC50 ([4]; BaF3, 72 hours, CTG): 8.74
- pIC50 ([5]; BaF3, 72 hours, CTG): 8.74

Source: patent US12428433B2, “Fluorine-containing heterocyclic derivatives with macrocyclic structure and use thereof” (ScinnoHub Pharmaceutical Co., Ltd, priority 2019, dated 2025)
